From patent US11981686B2, “Urea compound having substituent” (DAIICHI SANKYO COMPANY, LIMITED, priority 2019, dated 2024)

Molecular target: SIRT6 enzyme (Homo sapiens, UniProt Q8N6T7)
Assay: Measurement of deacetylation activity (SIRT6, AlphaLISA, H3K9(Ac) peptide)
Format: biochemical
Conditions: SIRT6 25 ng/mL, H3K9(Ac) biotin peptide 2 nM, NAD 10 μM, room temperature 30 minutes, duplicate
Procedure: The reaction was performed in duplicate using a white 384-well plate (3824, Corning or 6008350, PerkinElmer) at a final reaction liquid volume of 20.1 μL. As a control for calculating the enzyme activity, the enzyme-added (DMSO (+)) and enzyme-free (DMSO (−)) wells were set at n=8. Test substances (examples of final concentrations: 0.046, 0.14, 0.41, 1.2, 3.7, 11, 33, and 100 μM) at a concentration of 100 times or 0.1 μL of DMSO was dispensed into the plate and 5 μL of SIRT6 enzyme (prepared by Daiichi Sankyo RD Novare Co., Ltd., final concentration: 25 ng/mL) diluted with an assay buffer (10 mM Tris-HCl pH of 8.0, 0.1% BSA, 0.01% Tween 20, 1 mM DTT, 12.5% Glycerol) was added thereto. The enzymatic reaction was started by adding 5 μL of a mixed solution [Lys(Ac)9]-Histone H3 (1-21)-NH2, H3K9 (Ac), biotin-labeled, amide (AnaSpec, AS-64190, final concentration: 2 nM) and β-nicotinamide adenine dinucleotide (Sigma-Aldrich, N8285-15VL, final concentration: 10 μM), and the reaction was performed at room temperature for 30 minutes. 10 μL of a mixed solution of nicotinamide (Sigma-Aldrich, 72340-100G, final concentration: 100 mM) prepared with AlphaLISA Epigenetics Buffer (PerkinElmer, AL008C), AlphaLISA Anti-unmodified Histone H3 Lysine 9/Lysine 27 (H3K9/K27) Acceptor Beads (PerkinElmer, AL138, final concentration: 10 μg/mL), and AlphaScreen Streptavidin Donor beads (PerkinElmer, 6760002, final concentration: 5 μg/mL) was added thereto, the reaction was performed at room temperature for 60 minutes and then stopped, and acetylation was detected. The emission intensity was measured by EnVision (PerkinElmer).
The relative enzyme activity (%) of the test substance was calculated by the following equation. Relative enzyme activity (%)=[(emission intensity of test substance-added well−emission intensity of DMSO (−) well)/(emission intensity of DMSO (+) well−emission intensity of DMSO (−) well)]×100
The EC150 (the concentration of the compound showing a relative enzyme activity of 150%) of the test substance was calculated based on Sigmoidal dose-response (variable slope) of GraphPad Prism (GraphPad Software) using the value of the relative enzyme activity (%) at each concentration, and the results are listed in Tables 1-1 to 1-5.

SIRT6 enzyme, sequence (Q8N6T7 whole entry, species assumed): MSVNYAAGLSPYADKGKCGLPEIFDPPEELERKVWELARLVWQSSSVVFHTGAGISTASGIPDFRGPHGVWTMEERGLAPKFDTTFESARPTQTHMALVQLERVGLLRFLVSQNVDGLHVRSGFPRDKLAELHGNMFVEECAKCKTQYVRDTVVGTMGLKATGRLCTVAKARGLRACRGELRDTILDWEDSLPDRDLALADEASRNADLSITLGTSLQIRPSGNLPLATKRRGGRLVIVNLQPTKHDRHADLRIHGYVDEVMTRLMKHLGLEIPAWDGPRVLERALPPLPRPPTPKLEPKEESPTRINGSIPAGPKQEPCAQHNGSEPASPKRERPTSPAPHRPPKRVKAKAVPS

Compared with `Cn1cnc(CNC(=O)Nc2nc3c(s2)CN(c2nc(C4CCC(F)(F)CC4)no2)CC3)n1` [Example 106, N-{5-[3-(4,4-difluorocyclohexyl)-1,2,4-oxadiazol-5-yl]-4,5,6,7-tetrahydro[1,3]thiazolo[5,4-c]pyridin-2-yl}-N′-[(1-methyl-1H-1,2,4-triazol-3-yl)methyl]urea], `O=C(Nc1nc2c(s1)CN(c1nc(C3CC(F)(F)CCO3)no1)CC2)N[C@@H]1CCOC1` (stereo partly drawn) [Example 95, N-{5-[3-(4,4-difluorooxan-2-yl)-1,2,4-oxadiazol-5-yl]-4,5,6,7-tetrahydro[1,3]thiazolo[5,4-c]pyridin-2-yl}-N′-[(3R)-oxolan-3-yl]urea] is lower in “EC150 (the concentration of the compound showing a relative enzyme activity of 150%)” value: 2.4 μm for the first, 2.2 μm for the second.

Compared with `CC(=O)N1CC(NC(=O)Nc2nc3c(s2)[C@@H]2COC[C@H](C3)N2c2ncc(-c3cccc(OC(F)F)n3)o2)C1` [Example 183, N-(1-acetylazetidin-3-yl)-N′-[(4S,8S)-10-{5-[6-(difluoromethoxy)pyridin-2-yl]-1,3-oxazol-2-yl}-4,7,8,9-tetrahydro-5H-4,8-epiminooxocino[5,4-d][1,3]thiazol-2-yl]urea], `O=C(Nc1nc2c(s1)[C@@H]1COC[C@H](C2)N1c1ncc(-c2cccc(OC(F)F)n2)o1)NC1CCS(=O)(=O)CC1` [Example 180, N-[(4S,8S)-10-{5-[6-(difluoromethoxy)pyridin-2-yl]-1,3-oxazol-2-yl}-4,7,8,9-tetrahydro-5H-4,8-epiminooxocino[5,4-d][1,3]thiazol-2-yl]-N′-(1,1-dioxo-1λ^6 thian-4-yl)urea] is lower in “EC150 (the concentration of the compound showing a relative enzyme activity of 150%)” value: 0.24 μm for the first, 0.14 μm for the second.

Going from `O=C(Nc1nc2c(s1)C1COCC(C2)N1c1nnc(-c2cccc(OC(F)F)c2)o1)N[C@H]1CCOC1` (stereo partly drawn) [Example 115, N-(10-{5-[3-(difluoromethoxy)phenyl]-1,3,4-oxadiazol-2-yl}-4,7,8,9-tetrahydro-5H-4,8-epiminooxocino[5,4-d][1,3]thiazol-2-yl)-N′-[(3S)-oxolan-3-yl]urea] to `CNC(=O)Nc1nc2c(s1)C1COCC(C2)N1c1nnc(-c2cccc(OC(C)(C)C)c2)o1` (centres unmarked) [Example 111, N-{10-[5-(3-tert-butoxyphenyl)-1,3,4-oxadiazol-2-yl]-4,7,8,9-tetrahydro-5H-4,8-epiminooxocino[5,4-d][1,3]thiazol-2-yl}-N′-methylurea], the “EC150 (the concentration of the compound showing a relative enzyme activity of 150%)” value rises from 2 μm to 2.2 μm.

Going from `CNC(=O)Nc1nc2c(s1)[C@@H]1COC[C@H](C2)N1c1nnc(-c2cccc(C(=O)C3CC3)c2)o1` [Example 21, N-[(4S,8S)-10-{5-[3-(cyclopropanecarbonyl)phenyl]-1,3,4-oxadiazol-2-yl}-4,7,8,9-tetrahydro-5H-4,8-epiminooxocino[5,4-d][1,3]thiazol-2-yl]-N′-methylurea] to `CNC(=O)Nc1nc2c(s1)C1COCC(C2)N1c1nnc(-c2cccc(C(F)(F)F)c2)o1` (centres unmarked) [Example 110, N-methyl-N′-(10-{5-[3-(trifluoromethyl)phenyl]-1,3,4-oxadiazol-2-yl}-4,7,8,9-tetrahydro-5H-4,8-epiminooxocino[5,4-d][1,3]thiazol-2-yl)urea], the “EC150 (the concentration of the compound showing a relative enzyme activity of 150%)” value rises from 1.5 μm to 3.7 μm.

Going from `Cn1ccc(CNC(=O)Nc2nc3c(s2)[C@@H]2COC[C@H](C3)N2c2ncc(-c3cccc(OC(F)F)n3)o2)cc1=O` [Example 178, N-[(4S,8S)-10-{5-[6-(difluoromethoxy)pyridin-2-yl]-1,3-oxazol-2-yl}-4,7,8,9-tetrahydro-5H-4,8-epiminooxocino[5,4-d][1,3]thiazol-2-yl]-N′-[(1-methyl-2-oxo-1,2-dihydropyridin-4-yl)methyl]urea] to `CNC(=O)Nc1nc2c(s1)C1COCC(C2)N1c1ncc(-c2cccc(C(F)F)c2)o1` (centres unmarked) [Example 14, N-(10-{5-[3-(difluoromethyl)phenyl]-1,3-oxazol-2-yl}-4,7,8,9-tetrahydro-5H-4,8-epiminooxocino[5,4-d][1,3]thiazol-2-yl)-N′-methylurea], the “EC150 (the concentration of the compound showing a relative enzyme activity of 150%)” value rises from 0.1 μm to 0.94 μm.

First: CC(C)(CO)NC(=O)Nc1nc2c(s1)[C@@H]1COC[C@H](C2)N1c1ncc(-c2cccc(C(F)F)c2)o1 [Example 69, N-[(4S,8S)-10-{5-[3-(difluoromethyl)phenyl]-1,3-oxazol-2-yl}-4,7,8,9-tetrahydro-5H-4,8-epiminooxocino[5,4-d][1,3]thiazol-2-yl]-N′-(1-hydroxy-2-methylpropan-2-yl)urea]
Second: C[C@H](CO)NC(=O)Nc1nc2c(s1)[C@@H]1COC[C@H](C2)N1c1ncc(-c2cccc(C(F)F)c2)o1 [Example 71, N-[(4S,8S)-10-{5-[3-(difluoromethyl)phenyl]-1,3-oxazol-2-yl}-4,7,8,9-tetrahydro-5H-4,8-epiminooxocino[5,4-d][1,3]thiazol-2-yl]-N′-[(2R)-1-hydroxypropan-2-yl]urea]
The “EC150 (the concentration of the compound showing a relative enzyme activity of 150%)” value of the first is higher: 0.59 μm for the first, 0.34 μm for the second.

Going from `CC(C)NC(=O)Nc1nc2c(s1)[C@@H]1COC[C@H](C2)N1c1nc2cc(S(C)(=O)=O)ccc2o1` [Example 50, N-{(4S,8S)-10-[5-(methanesulfonyl)-1,3-benzoxazol-2-yl]-4,7,8,9-tetrahydro-5H-4,8-epiminooxocino[5,4-d][1,3]thiazol-2-yl}-N′-propan-2-ylurea] to `C[C@H](CO)NC(=O)Nc1nc2c(s1)[C@@H]1COC[C@H](C2)N1c1nc2cc(F)ccc2o1` [Example 39, N-[(4S,8S)-10-(5-fluoro-1,3-benzoxazol-2-yl)-4,7,8,9-tetrahydro-5H-4,8-epiminooxocino[5,4-d][1,3]thiazol-2-yl]-N′-[(2R)-1-hydroxypropan-2-yl]urea], the “EC150 (the concentration of the compound showing a relative enzyme activity of 150%)” value rises from 1.5 μm to 2.5 μm.

Going from `C[C@H](CO)NC(=O)Nc1nc2c(s1)C1COCC(C2)N1c1nc(-c2cccc(C(F)F)c2)no1` (stereo partly drawn) [Example 124, N-(10-{3-[3-(difluoromethyl)phenyl]-1,2,4-oxadiazol-5-yl}-4,7,8,9-tetrahydro-5H-4,8-epiminooxocino[5,4-d][1,3]thiazol-2-yl)-N′-[(2R)-1-hydroxypropan-2-yl]urea] to `COc1cc(-c2noc(N3C4COCC3c3sc(NC(=O)N[C@H](C)CO)nc3C4)n2)ccc1F` (stereo partly drawn) [Example 83, N-{10-[3-(4-fluoro-3-methoxyphenyl)-1,2,4-oxadiazol-5-yl]-4,7,8,9-tetrahydro-5H-4,8-epiminooxocino[5,4-d][1,3]thiazol-2-yl}-N′-[(2R)-1-hydroxypropan-2-yl]urea], the “EC150 (the concentration of the compound showing a relative enzyme activity of 150%)” value rises from 0.39 μm to 0.68 μm.

First: COc1cccc(-c2cc(N3[C@@H]4COC[C@H]3c3sc(NC(=O)N[C@@H]5CCOC5)nc3C4)no2)n1 [Example 163, N-{(4S,8S)-10-[5-(6-methoxypyridin-2-yl)-1,2-oxazol-3-yl]-4,7,8,9-tetrahydro-5H-4,8-epiminooxocino[5,4-d][1,3]thiazol-2-yl}-N′-[(3R)-oxolan-3-yl]urea]
Second: C[C@H](CO)NC(=O)Nc1nc2c(s1)[C@@H]1COC[C@H](C2)N1c1nc2cc(F)c(F)cc2o1 [Example 42, N-[(4S,8S)-10-(5,6-difluoro-1,3-benzoxazol-2-yl)-4,7,8,9-tetrahydro-5H-4,8-epiminooxocino[5,4-d][1,3]thiazol-2-yl]-N′-[(2R)-1-hydroxypropan-2-yl]urea]
The “EC150 (the concentration of the compound showing a relative enzyme activity of 150%)” value of the first is higher: 1.6 μm for the first, 1.3 μm for the second.

First: CC(C)(O)CNC(=O)Nc1nc2c(s1)[C@@H]1COC[C@H](C2)N1c1nc2cc(F)c(F)cc2o1 [Example 146, N-[(4S,8S)-10-(5,6-difluoro-1,3-benzoxazol-2-yl)-4,7,8,9-tetrahydro-5H-4,8-epiminooxocino[5,4-d][1,3]thiazol-2-yl]-N′-(2-hydroxy-2-methylpropyl)urea]
Second: CCO[C@H](C)c1nnc(N2CCc3nc(NC(=O)NC)sc3C2)o1 [Example 3, N-(5-{5-[(1R)-1-ethoxyethyl]-1,3,4-oxadiazol-2-yl}-4,5,6,7-tetrahydro[1,3]thiazolo[5,4-c]pyridin-2-yl)-N′-methylurea]
The “EC150 (the concentration of the compound showing a relative enzyme activity of 150%)” value of the first is lower: 1.9 μm for the first, 3.4 μm for the second.
